Test results as given in patent publication US6379879B2, “Color photographic silver halide material” (Agfa-Gevaert, priority 2000, dated 2002).

Experiment: pKa of oil formers by titration with tetrabutylammonium hydroxide
Assay type: physicochemical
Conditions: titration with TBAH in dimethyl sulfoxide/water (100:0.25)

tricresyl phosphate [TCP]
pKa of oil former: >20
